Experiments:
Format in all cases: biochemical
[1] = target: T1, human FAP (Homo sapiens, UniProt Q12884); assay: In vitro fluorescence enzymatic inhibition assay, FAP; settings: for IC50: recombinant FAP, fluorogenic DPP substrate 1, n = 3
T1 construct: purchased BPS Bioscience 80100
T1 sequence (Q12884 1-760): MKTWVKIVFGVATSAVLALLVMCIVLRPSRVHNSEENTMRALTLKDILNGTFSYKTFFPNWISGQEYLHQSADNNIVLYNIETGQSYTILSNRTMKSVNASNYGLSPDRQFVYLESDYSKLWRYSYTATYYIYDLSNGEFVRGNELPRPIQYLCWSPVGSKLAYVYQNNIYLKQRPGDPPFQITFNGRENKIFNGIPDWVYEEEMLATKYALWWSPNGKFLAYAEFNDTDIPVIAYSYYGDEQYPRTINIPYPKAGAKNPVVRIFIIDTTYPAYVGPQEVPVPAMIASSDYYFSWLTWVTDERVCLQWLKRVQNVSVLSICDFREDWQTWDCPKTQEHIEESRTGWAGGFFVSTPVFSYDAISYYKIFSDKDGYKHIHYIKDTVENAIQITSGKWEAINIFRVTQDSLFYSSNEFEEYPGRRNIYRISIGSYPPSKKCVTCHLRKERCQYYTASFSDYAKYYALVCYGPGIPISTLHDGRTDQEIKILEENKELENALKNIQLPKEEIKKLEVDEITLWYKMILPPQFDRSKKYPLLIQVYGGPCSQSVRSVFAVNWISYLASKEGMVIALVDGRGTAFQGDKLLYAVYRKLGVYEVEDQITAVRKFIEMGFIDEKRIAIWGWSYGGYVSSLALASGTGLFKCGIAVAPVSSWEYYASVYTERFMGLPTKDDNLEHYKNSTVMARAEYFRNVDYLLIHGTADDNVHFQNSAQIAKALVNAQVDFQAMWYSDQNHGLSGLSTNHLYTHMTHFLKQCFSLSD
Method: (§1) Enzymatic inhibition activity and selectivity of OncoFAP derivatives was assessed by employing commercially available in vitro fluorescence assays for FAP, dipeptidyl peptidase 8 (DDP8), and prolyl oligo peptidase (POP) (BPS Bioscience, San Diego, CA, US). The fluorogenic substrate (Fluorogenic DPP substrate 1, Ala-Pro-AMC dipeptide, AMC: 7-amino-4-methylcumaryl) was incubated together with recombinant FAP, DDP, or POP/PREP in the presence or absence of test compounds. The enzymatic activity was correlated with the amount of cleaved fluorescent product measured by fluorescence spectroscopy. IC50 of each test compound was determined from the curves obtained by plotting fluorescence intensities at different concentrations of the inhibitor.
(§2) The synthetic fluorometric DPP substrate 1 (BPS Bioscience, San Diego, CA, USA) Catalog no. […] Reaction rates were measured from the initial 30 min of the reaction profile where product release was linear with time and plotted as a function of inhibitor dose.

[2] = target: T2, dipeptidyl peptidase 8 (DPP8) (Homo sapiens, UniProt Q6V1X1); assay: In vitro fluorescence enzymatic inhibition assay, DPP8; settings: for IC50: recombinant DPP8, fluorogenic substrate
T2 construct: purchased BPS Bioscience 80080
T2 sequence (Q6V1X1 whole entry): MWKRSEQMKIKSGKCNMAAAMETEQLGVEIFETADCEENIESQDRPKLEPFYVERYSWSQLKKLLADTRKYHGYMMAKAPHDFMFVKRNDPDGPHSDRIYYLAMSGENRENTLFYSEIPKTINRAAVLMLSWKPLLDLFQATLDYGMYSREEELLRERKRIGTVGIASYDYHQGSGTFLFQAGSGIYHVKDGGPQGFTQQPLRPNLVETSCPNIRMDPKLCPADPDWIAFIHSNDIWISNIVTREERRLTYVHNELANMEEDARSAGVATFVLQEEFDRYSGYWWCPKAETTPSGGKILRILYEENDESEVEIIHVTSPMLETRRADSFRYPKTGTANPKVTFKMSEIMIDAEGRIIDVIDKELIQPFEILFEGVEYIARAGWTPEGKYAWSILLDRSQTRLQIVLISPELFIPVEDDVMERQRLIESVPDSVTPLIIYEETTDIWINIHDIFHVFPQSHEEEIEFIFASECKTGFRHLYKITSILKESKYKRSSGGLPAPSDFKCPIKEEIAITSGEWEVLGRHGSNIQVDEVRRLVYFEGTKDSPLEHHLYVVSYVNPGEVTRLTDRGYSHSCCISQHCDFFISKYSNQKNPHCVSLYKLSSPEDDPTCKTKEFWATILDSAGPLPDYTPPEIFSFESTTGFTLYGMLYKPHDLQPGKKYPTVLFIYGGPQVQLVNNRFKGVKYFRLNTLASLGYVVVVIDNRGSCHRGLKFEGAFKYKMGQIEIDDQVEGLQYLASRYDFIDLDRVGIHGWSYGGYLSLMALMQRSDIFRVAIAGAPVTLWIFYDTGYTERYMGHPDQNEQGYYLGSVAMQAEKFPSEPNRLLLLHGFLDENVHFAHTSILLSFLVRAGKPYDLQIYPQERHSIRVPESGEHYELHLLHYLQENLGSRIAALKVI
Method: as §1, §2

[3] = target: T3, prolyl oligo peptidase (POP) (Homo sapiens, UniProt P48147); assay: In vitro fluorescence enzymatic inhibition assay, POP; settings: for selectivity for FAP compared to POP: from IC50 values; for IC50: recombinant POP/PREP
T3 construct: purchased BPS Bioscience 80105
T3 sequence (P48147 1-710): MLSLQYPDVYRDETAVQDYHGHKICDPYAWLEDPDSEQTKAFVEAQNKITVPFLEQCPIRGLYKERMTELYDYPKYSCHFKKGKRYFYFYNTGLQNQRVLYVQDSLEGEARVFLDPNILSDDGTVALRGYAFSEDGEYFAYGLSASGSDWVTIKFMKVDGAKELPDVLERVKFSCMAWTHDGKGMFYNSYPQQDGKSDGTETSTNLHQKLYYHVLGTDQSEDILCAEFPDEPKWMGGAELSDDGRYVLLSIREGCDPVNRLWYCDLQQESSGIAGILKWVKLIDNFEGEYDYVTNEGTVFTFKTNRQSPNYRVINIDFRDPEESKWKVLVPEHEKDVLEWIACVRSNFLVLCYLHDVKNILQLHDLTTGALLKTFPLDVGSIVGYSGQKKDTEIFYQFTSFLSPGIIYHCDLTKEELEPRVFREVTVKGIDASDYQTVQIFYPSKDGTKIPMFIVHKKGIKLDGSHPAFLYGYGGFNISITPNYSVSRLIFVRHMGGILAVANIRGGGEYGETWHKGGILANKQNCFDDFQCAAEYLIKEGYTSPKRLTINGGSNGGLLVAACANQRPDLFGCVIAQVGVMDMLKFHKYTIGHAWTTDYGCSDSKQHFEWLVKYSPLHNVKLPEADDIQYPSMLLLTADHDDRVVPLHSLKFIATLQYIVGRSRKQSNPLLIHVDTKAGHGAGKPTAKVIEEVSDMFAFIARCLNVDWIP
Method: as §1, §2

Row | Substance | superior FAP binding potency compared to ^natGa-FAPI-46 ([1]; from IC50 values) | IC50 [1] | IC50 [2] | selectivity for FAP compared to POP [3] | IC50 ([3]; fluorogenic substrate) | selectivity for FAP compared to DPP8 ([2]; from IC50 values) | IC50 [3]
1 | [^natGa]Ga-OncoFAP-DOTAGA [^natGa-OncoFAP] | ca. 16 fold | 0.51 ± 0.11 nM | 6870 ± 111 nM | 96 fold | 49.2 ± 6.3 nM | – | –
2 | [^natGa]Ga-FAPI-46 [^natGa-FAPI-46] | – | 8.37 ± 0.71 nM | 10200 ± 3000 nM | > 1000 fold | – | > 1000 fold | > 10000 nM

— article PMC9016025, “Translational imaging of the fibroblast activation protein (FAP) using the new ligand [^68Ga]Ga-OncoFAP-DOTAGA” (European Journal of Nuclear Medicine and Molecular Imaging, 2021)
